Experiments:
Type in all cases: functional
[1] = system: COLO 205; experiment: Induction of apoptosis in human COLO205 cells assessed as caspase 8 activation at 10 uM by FLICA
[2] = Growth inhibition of human OVCAR3 cells assessed as cell growth at 10^-6 M after 48 hrs by sulforhodamine B assay; conditions: OVCAR-3, 48 h, read-out: Activity
[3] = system: U-251; experiment: Growth inhibition of human U251 cells assessed as cell growth at 10^-6 M after 48 hrs by sulforhodamine B assay; conditions: U-251, 48 h, read-out: Activity
[4] = system: SNB-75; experiment: Growth inhibition of human SNB75 cells assessed as cell growth at 10^-6 M after 48 hrs by sulforhodamine B assay; conditions: SNB-75, 48 h, read-out: Activity
[5] = system: SNB-19; experiment: Growth inhibition of human SNB19 cells assessed as cell growth at 10^-6 M after 48 hrs by sulforhodamine B assay; conditions: SNB-19, 48 h, read-out: Activity
[6] = system: SF-268; experiment: Growth inhibition of human SF268 cells assessed as cell growth at 10^-6 M after 48 hrs by sulforhodamine B assay; conditions: SF-268, 48 h, read-out: Activity
[7] = system: HCT-116; experiment: Growth inhibition of human HCT116 cells assessed as cell growth at 10^-6 M after 48 hrs by sulforhodamine B assay; conditions: HCT-116, 48 h, read-out: Activity
[8] = Growth inhibition of human HCC2998 cells assessed as cell growth at 10^-6 M after 48 hrs by sulforhodamine B assay; conditions: HCC 2998, 48 h, read-out: Activity
[9] = system: NCI-H226; experiment: Growth inhibition of human NCI-H226 cells assessed as cell growth at 10^-6 M after 48 hrs by sulforhodamine B assay; conditions: NCI-H226, 48 h, read-out: Activity
[10] = system: A549; experiment: Growth inhibition of human A549/ATCC cells assessed as cell growth at 10^-6 M after 48 hrs by sulforhodamine B assay; conditions: A549, 48 h, read-out: Activity
[11] = system: 786-0; experiment: Growth inhibition of human 786-0 cells assessed as cell growth at 10^-7 M after 48 hrs by sulforhodamine B assay; conditions: 786-0, 48 h, read-out: Activity
[12] = system: SK-OV-3; experiment: Growth inhibition of human SKOV3 cells assessed as cell growth at 10^-6 M after 48 hrs by sulforhodamine B assay; conditions: SK-OV-3, 48 h, read-out: Activity
[13] = Growth inhibition of human UACC62 cells assessed as cell growth at 10^-4 M after 48 hrs by sulforhodamine B assay; conditions: UACC-62, 48 h, read-out: Activity
[14] = system: Malme-3M; experiment: Growth inhibition of human MALME-3M cells assessed as cell growth at 10^-4 M after 48 hrs by sulforhodamine B assay; conditions: read-out: Activity
[15] = system: SNB-75; experiment: Growth inhibition of human SNB75 cells assessed as cell growth at 10^-4 M after 48 hrs by sulforhodamine B assay; conditions: SNB-75, 48 h, read-out: Activity
[16] = Growth inhibition of human SF295 cells assessed as cell growth at 10^-4 M after 48 hrs by sulforhodamine B assay; conditions: SF-295, 48 h, read-out: Activity
[17] = system: NCI-H460; experiment: Growth inhibition of human NCI-H460 cells assessed as cell growth at 10^-4 M after 48 hrs by sulforhodamine B assay; conditions: NCI-H460, 48 h, read-out: Activity
[18] = system: COLO 205; experiment: Growth inhibition of human COLO205 cells assessed as cell growth at 10^-8 M after 48 hrs by sulforhodamine B assay; conditions: COLO 205, 48 h; for growth at 0.01 µM: read-out: Activity; for TGI: read-out: pTGI (converted)
[19] = system: DU-145; experiment: Growth inhibition of human DU145 cells after 48 hrs by sulforhodamine B assay; conditions: DU-145, 48 h; for CC50: read-out: LC50 (the source's name)
[20] = Growth inhibition of human UO31 cells after 48 hrs by sulforhodamine B assay; conditions: UO-31, 48 h; for CC50: read-out: LC50 (the source's name)
[21] = system: CAKI-1; experiment: Growth inhibition of human CAKI-1 cells after 48 hrs by sulforhodamine B assay; conditions: CAKI-1, 48 h; for CC50: read-out: LC50 (the source's name)
[22] = Growth inhibition of human OVCAR8 cells after 48 hrs by sulforhodamine B assay; conditions: OVCAR-8, 48 h; for CC50: read-out: LC50 (the source's name)
[23] = system: SK-MEL-28; experiment: Growth inhibition of human SK-MEL-28 cells after 48 hrs by sulforhodamine B assay; conditions: SK-MEL-28, 48 h; for CC50: read-out: LC50 (the source's name)
[24] = system: M14; experiment: Growth inhibition of human M14 cells after 48 hrs by sulforhodamine B assay; conditions: M14, 48 h; for CC50: read-out: LC50 (the source's name)
[25] = system: HT-29; experiment: Growth inhibition of human HT-29 cells after 48 hrs by sulforhodamine B assay; conditions: HT-29, 48 h; for CC50: read-out: LC50 (the source's name)
[26] = Growth inhibition of human HCC2998 cells after 48 hrs by sulforhodamine B assay; conditions: HCC 2998, 48 h; for CC50: read-out: LC50 (the source's name)
[27] = Growth inhibition of human HOP92 cells after 48 hrs by sulforhodamine B assay; conditions: HOP-92, 48 h; for CC50: read-out: LC50 (the source's name)
[28] = system: MDA-MB-468; experiment: Growth inhibition of human MDA-MB-468 cells assessed as cell growth at 10^-4 M after 48 hrs by sulforhodamine B assay; conditions: MDA-MB-468, 48 h, read-out: Activity
[29] = system: MDA-MB-435; experiment: Growth inhibition of human MDA-MB-435 cells assessed as cell growth at 10^-7 M after 48 hrs by sulforhodamine B assay; conditions: MDA-MB-435, 48 h, read-out: Activity
[30] = Growth inhibition of human LOXIMVI cells assessed as cell growth at 10^-7 M after 48 hrs by sulforhodamine B assay; conditions: LOX IMVI, read-out: Activity
[31] = system: SNB-75; experiment: Growth inhibition of human SNB75 cells assessed as cell growth at 10^-7 M after 48 hrs by sulforhodamine B assay; conditions: SNB-75, 48 h, read-out: Activity
[32] = system: SNB-19; experiment: Growth inhibition of human SNB19 cells assessed as cell growth at 10^-7 M after 48 hrs by sulforhodamine B assay; conditions: SNB-19, 48 h, read-out: Activity
[33] = system: NCI-H322M; experiment: Growth inhibition of human NCI-H322M cells assessed as cell growth at 10^-7 M after 48 hrs by sulforhodamine B assay; conditions: read-out: Activity
[34] = system: NCI-H226; experiment: Growth inhibition of human NCI-H226 cells assessed as cell growth at 10^-7 M after 48 hrs by sulforhodamine B assay; conditions: NCI-H226, 48 h, read-out: Activity
[35] = system: PC-3; experiment: Growth inhibition of human PC3 cells assessed as cell growth at 10^-8 M after 48 hrs by sulforhodamine B assay; conditions: PC-3, 48 h; for growth at 0.01 µM: read-out: Activity; for TGI: read-out: pTGI (converted)

With `O=C1/C(=C/c2ccc(Cl)cc2Cl)CN(S(=O)(=O)c2ccccc2)C/C1=C\c1ccc(Cl)cc1Cl` the Activity [1] was 23%, the growth at 1 µM [2] was -10% and the growth at 1 µM [3] was -64%. The growth at 1 µM [4] was 38%, the growth at 1 µM [5] was 10% and the growth at 1 µM [6] was 24%. It also gave a growth at 1 µM [7] of -56%, a growth at 1 µM [8] of 13% and a growth at 1 µM [9] of 52%. The growth at 1 µM [10] was -5%, the growth at 0.1 µM [11] was 104% and the growth at 1 µM [12] was 108%. The growth at 100 µM [13] was -71%, the growth at 100 µM [14] was 22% and the growth at 100 µM [15] was -33%. It also gave a growth at 100 µM [16] of -11%, a growth at 100 µM [17] of -61% and a GI50 [18] of 0.427 µM. For the same compound, the LC50 [18] was > 100 µM, the growth at 0.01 µM [18] was 106% and the TGI [18] was 2 µM. The GI50 [19] was 0.446 µM, the TGI [19] was 18.8 µM and the CC50 [19] was > 100 µM. It also gave a GI50 [20] of 0.236 µM, a TGI [20] of 0.639 µM and a CC50 [20] of 4.75 µM. The GI50 [21] was 1.84 µM, the TGI [21] was 5.75 µM and the CC50 [21] was > 100 µM. For the same compound, the GI50 [22] was 0.286 µM, the TGI [22] was 0.958 µM and the CC50 [22] was > 100 µM. For the same compound, the GI50 [23] was 4.44 µM, the TGI [23] was > 100 µM and the CC50 [23] was > 100 µM. For the same compound, the GI50 [24] was 3.66 µM, the TGI [24] was > 100 µM and the CC50 [24] was > 100 µM. The GI50 [25] was 0.293 µM, the TGI [25] was 0.843 µM and the CC50 [25] was > 100 µM. It also gave a GI50 [26] of 0.383 µM, a TGI [26] of 1.36 µM and a CC50 [26] of 4.54 µM. For the same compound, the GI50 [27] was 1.7 µM, the TGI [27] was 5.55 µM and the CC50 [27] was > 100 µM. The growth at 100 µM [28] was -34%, the growth at 0.1 µM [29] was 88% and the growth at 0.1 µM [30] was 89%. It also gave a growth at 0.1 µM [31] of 71%, a growth at 0.1 µM [32] of 89% and a growth at 0.1 µM [33] of 123%. For the same compound, the growth at 0.1 µM [34] was 97%, the GI50 [35] was 0.288 µM and the LC50 [35] was > 100 µM. The growth at 0.01 µM [35] was 100% and the TGI [35] was 1.02 µM.
Work on `Cc1ccc(S(=O)(=O)N2C/C(=C\c3cc(F)cc(F)c3)C(=O)/C(=C/c3cc(F)cc(F)c3)C2)cc1` yielded an Activity [1] of 61%, a growth at 1 µM [2] of 16% and a growth at 1 µM [3] of -31%. It also gave a growth at 1 µM [4] of 82%, a growth at 1 µM [5] of -12% and a growth at 1 µM [6] of 21%. It also gave a growth at 1 µM [7] of -32%, a growth at 1 µM [8] of 35% and a growth at 1 µM [9] of 90%. For the same compound, the growth at 1 µM [10] was 86%, the growth at 0.1 µM [11] was 104% and the growth at 1 µM [12] was 77%. For the same compound, the growth at 100 µM [13] was -98%, the growth at 100 µM [14] was -78% and the growth at 100 µM [15] was -86%. It also gave a growth at 100 µM [16] of -75%, a growth at 100 µM [17] of -72% and a GI50 [18] of 0.617 µM. It also gave an LC50 [18] of 6.17 µM, a growth at 0.01 µM [18] of 107% and a TGI [18] of 2.09 µM. It also gave a GI50 [19] of 1.24 µM, a TGI [19] of 3.08 µM and a CC50 [19] of 7.62 µM. The GI50 [20] was 1.09 µM, the TGI [20] was 2.37 µM and the CC50 [20] was 5.17 µM. It also gave a GI50 [21] of 0.365 µM, a TGI [21] of 2.43 µM and a CC50 [21] of 61.9 µM. It also gave a GI50 [22] of 0.301 µM, a TGI [22] of 1.77 µM and a CC50 [22] of 16.3 µM. The GI50 [23] was 0.473 µM, the TGI [23] was 1.79 µM and the CC50 [23] was 4.82 µM. The GI50 [24] was 0.359 µM, the TGI [24] was 1.4 µM and the CC50 [24] was 5.91 µM. It also gave a GI50 [25] of 0.229 µM, a TGI [25] of 0.638 µM and a CC50 [25] of 3.19 µM. For the same compound, the GI50 [26] was 0.602 µM, the TGI [26] was 1.91 µM and the CC50 [26] was 4.85 µM. The GI50 [27] was 1.11 µM, the TGI [27] was 3.3 µM and the CC50 [27] was 9.78 µM. For the same compound, the growth at 100 µM [28] was -79%, the growth at 0.1 µM [29] was 92% and the growth at 0.1 µM [30] was 92%. It also gave a growth at 0.1 µM [31] of 90%, a growth at 0.1 µM [32] of 82% and a growth at 0.1 µM [33] of 103%. It also gave a growth at 0.1 µM [34] of 94%, a GI50 [35] of 0.245 µM and an LC50 [35] of 9.33 µM. It also gave a growth at 0.01 µM [35] of 93% and a TGI [35] of 0.794 µM.

Reference: ChEMBL document CHEMBL3217615, “Novel 3,5-bis(arylidiene)-4-piperidone based monocarbonyl analogs of curcumin: anticancer activity evaluation and mode of action study” (2014)
